Experimental data published in patent publication US20140329863A1 (priority 2011, published 2014).
pEC50: −log10 of the molar value. Read-outs that look alike come from different tables or passages of the source.

What was measured:
[1] = in vitro; conditions: mouse
[2] = test system: N2a-cl3 cells; conditions: mouse
[3] = test system: PrP^Sc in dividing ScN2a-cl3 cells; format: cell-based, mouse; conditions: for EC50: dividing ScN2a-cl3 cells
[4] = test system: PrP^Sc in ScN2a-cl3 cells; format: cell-based, mouse; conditions: Western immunoblots
[5] = Single-dose pharmacokinetics in FVB mice (oral gavage, IV); conditions: single oral dose 10 mg/kg; for Brain/Plasma AUClast Ratio: FVB mice; for AUClast ± SD, Brain / AUClast ± SD, Plasma: two FVB mice
[6] = read-out: Potency (nM) ELISA (EC50), PrP^Sc ELISA
[7] = read-out: EC50 (nM): Western, ScN2a-cl3 cells
[8] = read-out: Potency (nM) Western (EC50), dividing ScN2a-cl3 cells

| SMILES | CC50 [1] | EC50 (nM): Calcein (LC50 values from calcein assays) [2] | pEC50 ([3]; read-out: Antiprion activity EC50, thienopyridine analogs) | EC50 ([3]; read-out: EC50 (nM): ELISA) | EC50 [3, 6] | EC50 [4, 7] | EC50 [4, 8] | Brain/Plasma AUClast Ratio [5] | AUClast ± SD, Brain [5] | AUClast ± SD, Plasma [5] |
| --- | --- | --- | --- | --- | --- | --- | --- | --- | --- | --- |
| COc1ccc2cc3c(N)c(C(=O)Nc4ccc(C(C)=O)cc4)sc3nc2c1 [IND-0052025] | > 10000 nM | MW: 391.4 EC50 (nM): ELISA: 57 Calcein: >10,000 Western: 61 | 7.13 | 57 nM | 57 nM | 61 nM | 61 nM |  |  |  |
| COc1cc(CNCCO)cc(Br)c1OCc1ccccc1Cl [IND-0046380] | > 10000 nM | MW: 400.7 EC50 (nM): ELISA: 5080 Calcein: >10,000 Western: 2148 |  | 5080 nM | 5080 nM | 2150 nM | 2150 nM |  |  |  |
| Oc1ccc(/C=C/c2cc(O)cc(O)c2)cc1 [IND-0047971] | > 10000 nM | MW: 228.2 EC50 (nM): ELISA: 2260 Calcein: >10,000 Western: 584 |  | 2260 nM | 2260 nM | 584 nM | 584 nM |  |  |  |
| COc1cc(N)c(-c2ccc3cc(OC)c(OC)cc3n2)cc1OC [IND-0044355] | > 10000 nM | MW: 340.4 EC50 (nM): ELISA: 2143 Calcein: >10,000 Western: 1833 |  | 2140 nM | 2140 nM | 1830 nM | 1830 nM |  |  |  |
| Cn1c(=N)n(CC(=O)c2ccc(Cl)cc2)c2ccccc21 [IND-0026326] | > 10000 nM | MW: 299.8 EC50 (nM): ELISA: 5900 Calcein: >10,000 Western: 4967 |  | 5900 nM | 5900 nM | 4970 nM | 4970 nM |  |  |  |
| COc1cccc(Nc2nc(N)c3ccccc3n2)c1 [IND-0035916] | > 10000 nM | MW: 266.3 EC50 (nM): ELISA: 4023 Calcein: >10,000 Western: 5987 |  | 4020 nM | 4020 nM | 5990 nM | 5990 nM |  |  |  |
| COc1ccc(C(=O)Nc2ccc(-c3csc(C)n3)cc2)cc1 [IND-0033145] | > 10000 nM | MW: 324.4 EC50 (nM): ELISA: 412 Calcein: >10,000 Western: 161 |  | 412 nM | 412 nM | 161 nM | 161 nM |  |  |  |
| COc1ccc(-c2cc(-c3ccc(OC)cc3O)[nH]n2)cc1 [IND-0025807] | > 10000 nM | MW: 296.3 EC50 (nM): ELISA: 167 Calcein: >10,000 Western: 95 |  | 167 nM | 167 nM | 95 nM | 95 nM |  |  |  |
| COc1ccc(-c2cc(-c3ccc(C)cc3O)[nH]n2)cc1 [IND-0028801] | > 10000 nM | MW: 280.3 EC50 (nM): ELISA: 245 Calcein: >10,000 Western: 117 |  | 245 nM | 245 nM | 117 nM | 117 nM |  |  |  |
| N#Cc1sc2nc(-c3ccc4c(c3)OCO4)ccc2c1N [IND-0052851] | > 10000 nM | MW: 295.3 EC50 (nM): ELISA: 962 Calcein: >10,000 Western: 518 |  | 962 nM | 962 nM | 518 nM | 518 nM | 2.59 | 2.12 ± 0.93 µM·h | 0.82 ± 0.31 µM·h |
| CCOc1ccc(C(=O)Nc2ccc3oc(-c4ccc(OC)cc4)nc3c2)cc1 [IND-0114138] | > 10000 nM | MW: 388.4 EC50 (nM): ELISA: 65 Calcein: >10,000 Western: 134 |  | 65 nM | 65 nM | 134 nM | 134 nM |  |  |  |
| c1cncc(-c2nc(-c3c[nH]c4ccccc34)cs2)c1 [IND-0024350] | > 10000 nM | MW: 277.3 EC50 (nM): ELISA: 321 Calcein: >10,000 Western: 828 |  | 321 nM | 321 nM | 828 nM | 828 nM |  |  |  |
| N#Cc1ccc(/C=C/c2ccc(F)cc2)cc1 [IND-0047979] | > 10000 nM | MW: 223.3 EC50 (nM): ELISA: 1700 Calcein: >10,000 Western: 528 |  | 1700 nM | 1700 nM | 528 nM | 528 nM |  |  |  |
| CCOc1ccc(NC(=O)c2cc3ccccc3cc2O)cc1 [IND-0031751] | > 10000 nM | MW: 307.3 EC50 (nM): ELISA: 156 Calcein: >10,000 Western: 42 |  | 156 nM | 156 nM | 42 nM | 42 nM |  |  |  |
| CN(C)CCNc1nc(-c2ccc(Cl)cc2)nc2ccccc12 [IND-0034921] | > 10000 nM | MW: 326.8 EC50 (nM): ELISA: 3693 Calcein: >10,000 Western: 2009 |  | 3690 nM | 3690 nM | 2010 nM | 2010 nM |  |  |  |
| CC(=O)c1ccc(N2CCN(Cc3ccccc3)CC2)cc1 [IND-0019136] | > 10000 nM | MW: 294.4 EC50 (nM): ELISA: 8681 Calcein: >10,000 Western: 615 |  | 8680 nM | 8680 nM | 615 nM | 615 nM |  |  |  |
| Cc1[nH]c2ccccc2c1-c1csc(-c2cccnc2)n1 [IND-0024352] | > 10000 nM | MW: 291.4 EC50 (nM): ELISA: 2267 Calcein: >10,000 Western: 1698 |  | 2270 nM | 2270 nM | 1700 nM | 1700 nM |  |  |  |
| CN1CCN(c2ccc(Nc3ccnc4cc(Cl)ccc34)cc2)CC1 [IND-0045193] | > 10000 nM | MW: 352.9 EC50 (nM): ELISA: 1220 Calcein: >10,000 Western: 2073 |  | 1220 nM | 1220 nM | 2070 nM | 2070 nM | 4.72 | 7.36 ± 0.78 µM·h | 1.56 ± 0.31 µM·h |
| c1ccc2cc(-c3cn4ccsc4n3)ccc2c1 [IND-009413] | > 10000 nM | MW: 250.2 EC50 (nM): ELISA: 6015 Calcein: >10,000 Western: 2490 |  | 6020 nM | 6020 nM | 2490 nM | 2490 nM |  |  |  |
| COc1ccc(-c2nc3cc(NC(=O)c4ccc(OCc5ccccc5)cc4)ccc3o2)cc1 [IND-0114202] | > 10000 nM | MW: 450.5 EC50 (nM): ELISA: 57 Calcein: >10,000 Western: 2565 |  | 57 nM | 57 nM | 2560 nM | 2560 nM |  |  |  |
| CCc1ccc(-c2cn3cc(C)sc3n2)cc1 [IND-0009416] | > 10000 nM | MW: 242.3 EC50 (nM): ELISA: 1776 Calcein: >10,000 Western: 517 |  | 1780 nM | 1780 nM | 517 nM | 517 nM |  |  |  |
| CCc1ccc(-c2cn3cc(C)ccc3n2)cc1 [IND-0009419] | > 10000 nM | MW: 236.3 EC50 (nM): ELISA: 709 Calcein: >10,000 Western: 265 |  | 709 nM | 709 nM | 265 nM | 285 nM |  |  |  |
| Cn1c(=N)n(CC(=O)c2ccc(Br)cc2)c2ccccc21 [IND-0044723] | > 10000 nM | MW: 344.2 EC50 (nM): ELISA: 1983 Calcein: >10,000 Western: 1453 |  | 1980 nM | 1980 nM | 1450 nM | 1450 nM |  |  |  |
| CCc1ccc(-c2cn3ccccc3n2)cc1 [IND-0009417] | > 10000 nM | MW: 222.3 EC50 (nM): ELISA: 9158 Calcein: >10,000 Western: 4715 |  | 9160 nM | 9160 nM | 4720 nM | 4720 nM |  |  |  |
